Measurements reported in US20240239781A1, “1H-PYRAZOLE DERIVATIVES AS SIGMA LIGANDS” (ACONDICIONAMIENTO TARRASENSE, priority 2021, published 2024).

Tests used:
human σ1 receptor = target: T1, human σ1 receptor (Homo sapiens, UniProt Q99720); experiment: Human σ1 receptor radioligand assay ([3H](+)-pentazocine, transfected HEK-293 membranes); settings: class scale, read-out: Binding σ-1 Ki
T1 construct: expressed in transfected cells; host or cells: HEK-293
Procedure: Transfected HEK-293 membranes (7 μg) were incubated with 5 nM of [^3H](+)-pentazocine in assay buffer containing Tris-HCl 50 mM at pH 8. NBS (non-specific binding) was measured by adding 10 μM haloperidol. The binding of the test compound was measured at either one concentration (% inhibition at 1 or 10 μM) or five different concentrations to determine affinity values (Ki). Plates were incubated at 37° C. for 120 minutes. After the incubation period, the reaction mix was then transferred to MultiScreen HTS, FC plates (Millipore), filtered and plates were washed 3 times with ice-cold 10 mM Tris-HCL (pH7.4). Filters were dried and counted at approximately 40% efficiency in a MicroBeta scintillation counter (Perkin-Elmer) using EcoScint liquid scintillation cocktail.

human σ2/TMEM97 receptor = target: T2, human σ2/TMEM97 receptor (Homo sapiens, UniProt Q5BJF2); experiment: Binding assay to human σ2/TMEM97 receptor ([3H]-DTG, transfected HEK-293 membranes); settings: class scale, read-out: Binding σ-2 Ki
T2 construct: expressed in transfected cells; host or cells: HEK-293
T2 sequence (Q5BJF2 whole entry): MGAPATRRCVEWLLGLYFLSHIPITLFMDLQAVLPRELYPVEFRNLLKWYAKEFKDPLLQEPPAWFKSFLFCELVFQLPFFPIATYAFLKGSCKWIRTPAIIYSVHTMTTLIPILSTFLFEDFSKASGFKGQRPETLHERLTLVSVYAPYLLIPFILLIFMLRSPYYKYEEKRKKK
Procedure: Transfected HEK-293 membranes (15 μg) were incubated with 10 nM [^3H]-1,3-Di-o-tolylguanidine (DTG) in assay buffer containing Tris-HCl 50 mM at pH 8.0. NSB (non-specific binding) was measured by adding 10 μM haloperidol. The binding of the test compound was measured at either one concentration (% inhibition at 1 or 10 μM) or five different concentrations to determine affinity values (Ki). Plates were incubated at 25° C. for 120 minutes. After the incubation period, the reaction mix was transferred to MultiScreen HTS, FC plates (Millipore), filtered and washed 3 times with ice-cold 10 mM Tris-HCL (pH 8.0). Filters were dried and counted at approximately 40% efficiency in a MicroBeta scintillation counter (Perkin-Elmer) using EcoScint liquid scintillation cocktail.

T1 sequence (Q99720 whole entry): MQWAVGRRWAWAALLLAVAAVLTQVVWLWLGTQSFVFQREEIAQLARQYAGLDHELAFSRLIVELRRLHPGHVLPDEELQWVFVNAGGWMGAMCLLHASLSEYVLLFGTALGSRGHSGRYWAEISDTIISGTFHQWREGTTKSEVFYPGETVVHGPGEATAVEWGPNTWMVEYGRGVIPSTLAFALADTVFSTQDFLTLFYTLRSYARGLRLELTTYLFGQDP

Structure (SMILES)	Ki (human σ1 receptor)	Ki (human σ2/TMEM97 receptor)
Cn1cc(-c2nn(C)c(Cl)c2C(=O)N2CCCC3(CCN(CCC(C)(C)C)CC3)C2)cn1 [Example 135, (5-Chloro-1,1′-dimethyl-1H,1′H-[3,4′-bipyrazol]-4-yl)(9-(3,3-dimethylbutyl)-2,9-diazaspiro[5.5]undecan-2-yl)methanone]	> 1000 nM	< 100 nM
Cc1cc(-c2nn(C)c(Cl)c2CN2CC[C@H](CNCCc3ccccc3)C2)no1 [Example 71, (R)-N-((1-((5-Chloro-1-methyl-3-(5-methylisoxazol-3-yl)-1H-pyrazol-4-yl)methyl)pyrrolidin-3-yl)methyl)-2-phenylethanamine]	> 1000 nM	100 to 500 nM
Cc1cc(-c2nn(-c3ccccc3)c(Cl)c2CN2CCCCC(NCCC(C)C)C2)no1 (stereo not drawn) [Example 18, 1-((5-Chloro-3-(5-methylisoxazol-3-yl)-1-phenyl-1H-pyrazol-4-yl)methyl)-N-isopentylazepan-3-amine]	100 to 500 nM	> 1000 nM
CCn1nc(-c2cccc(C(F)(F)F)n2)c(CN2CC3(CCN(CCC(C)(C)C)CC3)CC2=O)c1Cl [Example 229, 2-((5-Chloro-1-ethyl-3-(6-(trifluoromethyl)pyridin-2-yl)-1H-pyrazol-4-yl)methyl)-8-(3,3-dimethylbutyl)-2,8-diazaspiro[4.5]decan-3-one]	< 100 nM	< 100 nM
CCc1nc(C)c(-c2nn(C)c(Cl)c2C(=O)N2CCC3(CCN(CCC(C)(C)C)CC3)CC2)o1 [Example 176, (5-Chloro-3-(2-ethyl-4-methyloxazol-5-yl)-1-methyl-1H-pyrazol-4-yl)(9-(3,3-dimethylbutyl)-3,9-diazaspiro[5.5]undecan-3-yl)methanone]	> 1000 nM	< 100 nM
Cc1cc(-c2nn(C)c(Cl)c2CN2CCC3(C2)CN(Cc2ccccc2)C3)no1 [Example 60, 3-(4-((2-Benzyl-2,6-diazaspiro[3.4]octan-6-yl)methyl)-5-chloro-1-methyl-1H-pyrazol-3-yl)-5-methylisoxazole]	< 100 nM	100 to 500 nM
Cc1cc(-c2nn(C)c(Cl)c2CN2CC[C@H](CNCCC(C)(C)C)C2)no1 [Example 74, (R)-N-((1-((5-chloro-1-methyl-3-(5-methylisoxazol-3-yl)-1H-pyrazol-4-yl)methyl)pyrrolidin-3-yl)methyl)-3,3-dimethylbutan-1-amine]	100 to 500 nM	< 100 nM
CCn1nc(-c2cc(C)on2)c(CC(=O)N2CCCC3(CCN(CCC(C)(C)C)CC3)C2)c1Cl [Example 217, 2-(5-Chloro-1-ethyl-3-(5-methylisoxazol-3-yl)-1H-pyrazol-4-yl)-1-(9-(3,3-dimethylbutyl)-2,9-diazaspiro[5.5]undecan-2-yl)ethan-1-one]	100 to 500 nM	< 100 nM
Cc1cc(-c2nn(C)c(Cl)c2CN2CCCC(NCCC(C)C)CC2=O)no1 (stereo not drawn) [Example 118, 1-((5-Chloro-1-methyl-3-(5-methylisoxazol-3-yl)-1H-pyrazol-4-yl)methyl)-4-(isopentylamino)azepan-2-one]	> 1000 nM	100 to 500 nM
CCCn1nc(-c2cc(C)on2)c(C(=O)N2CC3(CCN(CCC(C)(C)C)CC3)C2)c1Cl [Example 185, (5-Chloro-3-(5-methylisoxazol-3-yl)-1-propyl-1H-pyrazol-4-yl)(7-(3,3-dimethylbutyl)-2,7-diazaspiro[3.5]nonan-2-yl)methanone]	100 to 500 nM	< 100 nM
Cc1cc(-c2nn(C)c(Cl)c2CN2CCC3(CCN(CCC(C)C)CC3)CC2)no1 [Example 67, 3-(5-Chloro-4-((9-isopentyl-3,9-diazaspiro[5.5]undecan-3-yl)methyl)-1-methyl-1H-pyrazol-3-yl)-5-methylisoxazole]	500 to 1000 nM	< 100 nM
Cc1cccc(-c2nn(C)c(Cl)c2C(=O)N2CCC3(CCN(CCC(C)(C)C)CC3)CC2)n1 [Example 189, (5-Chloro-1-methyl-3-(6-methylpyridin-2-yl)-1H-pyrazol-4-yl)(9-(3,3-dimethylbutyl)-3,9-diazaspiro[5.5]undecan-3-yl)methanone]	500 to 1000 nM	< 100 nM
Cn1nc(-c2cccc(C(F)(F)F)n2)c(C(=O)N2CCCC3(CCN(CCC(C)(C)C)CC3)C2)c1Cl [Example 155, (5-Chloro-1-methyl-3-(6-(trifluoromethyl)pyridin-2-yl)-1H-pyrazol-4-yl)(9-(3,3-dimethylbutyl)-2,9-diazaspiro[5.5]undecan-2-yl)methanone]	100 to 500 nM	< 100 nM
COc1ccc(-c2nn(C)c(Cl)c2CN2CCCCC(NCCC(C)(C)C)C2)nc1 (stereo not drawn) [Example 35, 1-((5-Chloro-3-(5-methoxypyridin-2-yl)-1-methyl-1H-pyrazol-4-yl)methyl)-N-(3,3-dimethylbutyl)azepan-3-amine]	500 to 1000 nM	> 1000 nM
CCn1nc(-c2ccon2)c(CC(=O)N2CCCC3(CCN(CCC(C)(C)C)CC3)C2)c1Cl [Example 218, 2-(5-Chloro-1-ethyl-3-(isoxazol-3-yl)-1H-pyrazol-4-yl)-1-(9-(3,3-dimethylbutyl)-2,9-diazaspiro[5.5]undecan-2-yl)ethan-1-one]	> 1000 nM	< 100 nM
Cc1cc(-c2nn(C)c(Cl)c2CN2CCC3(CC2)CCN(CCC(C)(C)C)C3)no1 [Example 50, 3-(5-Chloro-4-((2-(3,3-dimethylbutyl)-2,8-diazaspiro[4.5]decan-8-yl)methyl)-1-methyl-1H-pyrazol-3-yl)-5-methylisoxazole]	100 to 500 nM	< 100 nM
CC(C)c1cc(-c2nn(C)c(Cl)c2CN2CCCCC(NCCC(C)(C)C)C2)no1 (stereo not drawn) [Example 15, 1-((5-Chloro-3-(5-isopropylisoxazol-3-yl)-1-methyl-1H-pyrazol-4-yl)methyl)-N-(3,3-dimethylbutyl)azepan-3-amine]	100 to 500 nM	> 1000 nM
Cc1cc(-c2nn(C)c(Cl)c2C(=O)N2CCCC3(CCN(CCC(C)(C)C)CC3)C2)no1 [Example 92, (5-Chloro-1-methyl-3-(5-methylisoxazol-3-yl)-1H-pyrazol-4-yl)(9-(3,3-dimethylbutyl)-2,9-diazaspiro[5.5]undecan-2-yl)methanone]	< 100 nM	< 100 nM
Cc1cc(-c2nn(C)c(Cl)c2CN2CCC(CNCC(C)C)C2)no1 (stereo not drawn) [Example 49, N-((1-((5-Chloro-1-methyl-3-(5-methylisoxazol-3-yl)-1H-pyrazol-4-yl)methyl)pyrrolidin-3-yl)methyl)-2-methylpropan-1-amine]	100 to 500 nM	> 1000 nM
CCn1nc(-c2ccon2)c(CC(=O)NC2CCC3(CC2)CCN(CCC(C)(C)C)CC3)c1Cl [Example 219, 2-(5-Chloro-1-ethyl-3-(isoxazol-3-yl)-1H-pyrazol-4-yl)-N-(3-(3,3-dimethylbutyl)-3-azaspiro[5.5]undecan-9-yl)acetamide]	100 to 500 nM	< 100 nM
CC(C)CCNC1CCCCN(Cc2c(-c3cc(C4CC4)on3)nn(C)c2Cl)C1 (stereo not drawn) [Example 19, 1-((5-Chloro-3-(5-cyclopropylisoxazol-3-yl)-1-methyl-1H-pyrazol-4-yl)methyl)-N-isopentylazepan-3-amine]	500 to 1000 nM	> 1000 nM
CCn1nc(-c2ccon2)c(C(=O)NC2CC3(CCN(CCC(C)(C)C)CC3)C2)c1Cl [Example 139, 5-Chloro-N-(7-(3,3-dimethylbutyl)-7-azaspiro[3.5]nonan-2-yl)-1-ethyl-3-(isoxazol-3-yl)-1H-pyrazole-4-carboxamide]	100 to 500 nM	< 100 nM
Cc1cc(-c2nn(C)c(Cl)c2CN2CC[C@]3(CCN(CCC(C)(C)C)C3)C2)no1 [Example 69, (S)-3-(5-Chloro-4-((7-(3,3-dimethylbutyl)-2,7-diazaspiro[4.4]nonan-2-yl)methyl)-1-methyl-1H-pyrazol-3-yl)-5-methylisoxazole]	< 100 nM	< 100 nM
CCn1nc(-c2cc(C)on2)c(C(=O)NC2CCCN(CCC(C)(C)C)C2)c1Cl (stereo not drawn) [Example 202, 5-Chloro-N-(1-(3,3-dimethylbutyl)piperidin-3-yl)-1-ethyl-3-(5-methylisoxazol-3-yl)-1H-pyrazole-4-carboxamide]	100 to 500 nM	100 to 500 nM
Cc1cc(-c2nn(C)c(Cl)c2CN2CCCC[C@H](NCCC(C)C)C2)no1 [Example 12, (S)-1-((5-Chloro-1-methyl-3-(5-methylisoxazol-3-yl)-1H-pyrazol-4-yl)methyl)-N-isopentylazepan-3-amine]	100 to 500 nM	> 1000 nM
Cc1cc(-c2nn(C)c(Cl)c2CN2CCC(CNCCC(C)C)C2)no1 (stereo not drawn) [Example 29, N-((1-((5-Chloro-1-methyl-3-(5-methylisoxazol-3-yl)-1H-pyrazol-4-yl)methyl)pyrrolidin-3-yl)methyl)-3-methylbutan-1-amine]	500 to 1000 nM	100 to 500 nM
Cc1cc(-c2nn(C)c(Cl)c2CN2CCC3(CCN(Cc4ccccc4)CC3)CC2)no1 [Example 66, 3-(4-((9-Benzyl-3,9-diazaspiro[5.5]undecan-3-yl)methyl)-5-chloro-1-methyl-1H-pyrazol-3-yl)-5-methylisoxazole]	< 100 nM	< 100 nM
